In patent US8686048B2, “Immunomodulator and anti-inflammatory compounds” (Rhizen Pharmaceuticals SA, priority 2010, dated 2014):

Experiments:
[1] = target: T1, h-DHODH (Homo sapiens, UniProt Q02127); assay: Dihydro-orotate dehydrogenase inhibition assay (U937 membrane preparations, DCIP reduction); assay type: biochemical; conditions: U937 membrane preparation; for inhibition at 0.3 µM: compound tested at 0.3 uM (footnote *)
T1 construct: endogenous in cells; host or cells: U937 cells (membrane fraction, solubilised with 1% octyl glucoside)
T1 sequence (Q02127 whole entry): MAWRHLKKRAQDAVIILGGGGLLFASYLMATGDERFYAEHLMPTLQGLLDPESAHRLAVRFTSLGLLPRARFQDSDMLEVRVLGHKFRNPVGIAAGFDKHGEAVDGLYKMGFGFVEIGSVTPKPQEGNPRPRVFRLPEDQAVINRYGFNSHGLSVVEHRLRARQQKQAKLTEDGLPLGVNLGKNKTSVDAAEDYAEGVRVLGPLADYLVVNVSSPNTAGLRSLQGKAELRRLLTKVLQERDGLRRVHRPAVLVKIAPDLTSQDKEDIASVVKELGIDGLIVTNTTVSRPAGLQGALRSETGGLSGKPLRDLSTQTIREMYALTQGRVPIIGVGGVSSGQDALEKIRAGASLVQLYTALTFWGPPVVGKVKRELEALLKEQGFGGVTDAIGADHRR
Method: Dihydro-Orotate Dehydrogenase Inhibition Assay
Dihydro-orotate dehydrogenase (DHODH) catalyzes the […] of dihydro-orotate to orotate during de novo biosynthesis of pyrimidines Inhibition of DHODH activity in U937 membrane preparations was measured by the dihydro-orotate driven reduction of 2,6 dichloroindophenol (DCIP).
U937 cells were homogenized in 20 mM Tris/HCl (pH 7.2) containing 1 mM EDTA. […] Following washes, the pellet was dissolved in 20 mM Tris/HCl containing 150 mM NaCl, 1 mM EDTA, and 1% octyl glucoside on ice for 1 h. Particulate matter was removed by centrifugation at 100000×g for 1 h at 4° C. […] The mixture was incubated at 37° C. for 4 h before measuring the change in absorbance on a plate reader (BMG Labtech., Germany) at 600 nm. Data were analyzed using GraphPad Prism. IC50 for each compound was determined based on the percent inhibition of dihydro-orotate […].

[2] = tested on: IL-17; assay: Inhibition of IL-17 release from mouse splenocytes (PMA + ionomycin, ELISA); assay type: cell-based, Balb/c mice; conditions: Splenocyte, 10 μM, 3 h
Method: 2. Inhibition of IL-17 Release from Mouse Splenocytes:
Splenocytes isolated from Balb/c mice were re-suspended in RPMI medium at a concentration of 1×10^6 cells/ml and seeded in a 6 well plate. Cells were incubated with desired concentrations of the inhibitor for 15 min prior to induction with 10 ng/ml PMA+1 μM ionomycin. After a 3 h incubation, supernatant was collected and analyzed for IL-17 concentration using an ELISA kit. Data were analyzed using GraphPad Prism. IC50 values for each compound were determined based on the percent inhibition due to the test compound compared to the control.

| SMILES | inhibition at 1 µM [1] | inhibition at 10 µM [2] | IC50 [1] | inhibition at 0.3 µM [1] | inhibition at 10 µM ([1]; compound tested at 10 uM) |
| --- | --- | --- | --- | --- | --- |
| COc1ccc(F)c(-c2cc(F)c(NC(=O)c3ccccc3C(=O)O)c(F)c2)c1 [Example 58, 2-(2′,3,5-Trifluoro-5′-methoxybiphenyl-4-ylcarbamoyl)benzoic acid] | 76.1% | 5.46% | – | – | – |
| O=C(O)c1ccccc1C(=O)Nc1c(F)cc(-c2cccc(OCC(F)(F)F)c2)cc1Cl [Example 68, 2-[3-chloro-5-fluoro-3′-(2,2,2-trifluoroethoxy)biphenyl-4-ylcarbamoyl]benzoic acid] | 86.5% | – | 62.2 nM | – | – |
| Cc1c[nH]c2ccc(-c3cc(F)c(NC(=O)c4ccccc4C(=O)O)c(F)c3)cc12 [Example 63, 2-[2,6-difluoro-4-(3-methyl-1H-indol-5-yl)phenylcarbamoyl]benzoic acid] | 76.7% | 0% | 22 nM | – | – |
| CCOc1cccc(-c2cc(F)c(NC(=O)c3ccccc3CO)c(F)c2)c1 [Example 37, N-(3′-Ethoxy-3,5-difluorobiphenyl-4-yl)-2-(hydroxymethyl)benzamide] | 14.8% | 17.8% | – | – | – |
| COc1cc(Cl)cc(-c2cc(F)c(NC(=O)c3ccccc3C(=O)O)c(Cl)c2)c1 [Example 51, 2-(3,3′-Dichloro-5-fluoro-5′-methoxybiphenyl-4-ylcarbamoyl)benzoic acid] | 26.6% | 10.8% | – | – | – |
| O=C(O)c1ccccc1C(=O)Nc1ccc(-c2ccccc2)cc1 [Example 85, 2-(biphenyl-4-ylcarbamoyl)benzoic acid] | – | 13% | – | 15.1% | – |
| COc1cccc(-c2ccc(NC(=O)c3ccccc3C(=O)O)c(F)c2)c1 [Example 69, 2-(3-fluoro-3′-methoxybiphenyl-4-ylcarbamoyl)benzoic acid] | 22% | 5.54% | – | – | – |
| CCOc1cccc(-c2cc(F)c(NC(=O)c3ccccc3CO)c(Cl)c2)c1 [Example 36, N-(3-Chloro-3′-ethoxy-5-fluorobiphenyl-4-yl)-2-(hydroxymethyl)benzamide] | – | 45.5% | – | – | – |
| CC[S+]([O-])c1cccc(-c2cc(F)c(NC(=O)c3ccccc3C(=O)O)c(F)c2)c1 (centres unmarked) [Example 72, 2-[3′-(ethylsulfinyl)-3,5-difluorobiphenyl-4-ylcarbamoyl]benzoic acid] | 16.9% | 7.36% | – | – | – |
| COc1ccc(-c2cc(F)c(NC(=O)c3ccccc3C(=O)O)c(Cl)c2)cc1OC [Example 56, 2-(3-Chloro-5-fluoro-3′,4′-dimethoxybiphenyl-4-ylcarbamoyl)benzoic acid] | 1.77% | 5.49% | – | – | – |
| CCOc1cccc(-c2cc(F)c(NC(=O)c3c(Cl)ccc(Cl)c3C(=O)O)c(F)c2)c1 [Example 28, 3,6-dichloro-2-(3′-ethoxy-3,5-difluorobiphenyl-4-ylcarbamoyl)benzoic acid] | 12.9% | 18.8% | – | – | – |
| CCc1cccc(-c2cc(F)c(NC(=O)c3ccccc3C(=O)O)c(F)c2)c1 [Example 84, 2-(3′-ethyl-3,5-difluorobiphenyl-4-ylcarbamoyl)benzoic acid] | – | 12.1% | – | 36.6% | – |
| CCOc1cccc(-c2cc(F)c(NC(=O)c3ccccc3C(=O)O)c(Cl)c2)c1F [Example 66, 2-(3-chloro-3′-ethoxy-2′,5-difluorobiphenyl-4-ylcarbamoyl)benzoic acid] | 87.5% | – | 84.4 nM | – | – |
| O=C(O)c1ccccc1C(=O)Nc1c(F)cc(-c2ccc3c(c2)OCO3)cc1F [Example 47, 2-[4-(Benzo[d][1,3]dioxol-5-yl)-2,6-difluorophenylcarbamoyl]benzoic acid] | 55.2% | 6.22% | – | – | – |
| Cc1nn(C)c2ccc(-c3cc(F)c(NC(=O)c4ccccc4C(=O)O)c(F)c3)cc12 [Example 54, 2-[4-(1,3-Dimethyl-1H-indazol-5-yl)-2,6-difluorophenylcarbamoyl]benzoic acid] | – | 22.6% | – | – | – |
| O=C(O)c1ccccc1C(=O)Nc1c(F)cc(-c2ccc3c(c2)OCCO3)cc1Cl [Example 67, 2-[2-chloro-4-(2,3-dihydrobenzo[b][1,4]dioxin-6-yl)-6-fluorophenylcarbamoyl]benzoic acid] | 54.1% | 3.56% | – | – | – |
| COc1cc(F)cc(-c2cc(F)c(NC(=O)c3ccccc3C(=O)O)c(F)c2)c1 [Example 46, 2-(3,3′,5-Trifluoro-5′-methoxybiphenyl-4-ylcarbamoyl)benzoic acid] | 56% | 3.69% | – | – | – |
| COc1cc(-c2cc(F)c(NC(=O)c3ccccc3C(=O)O)c(F)c2)ccc1F [Example 62, 2-(3,4′,5-trifluoro-3′-methoxybiphenyl-4-ylcarbamoyl)benzoic acid] | 12.4% | 8.34% | – | – | – |
| O=C(O)c1ccccc1C(=O)Nc1c(F)cc(-c2cccc(OCC(F)(F)F)c2)cc1F [Example 83, 2-[3,5-difluoro-3′-(2,2,2-trifluoroethoxy)biphenyl-4-ylcarbamoyl]benzoic acid] | – | 8.79% | – | 43.6% | – |
| COc1ccc(Cl)c(-c2cc(F)c(NC(=O)c3ccccc3C(=O)O)c(F)c2)c1 [Example 45, 2-(2′-Chloro-3,5-difluoro-5′-methoxybiphenyl-4-ylcarbamoyl)benzoic acid] | 96.2% | 48.5% | 44.1 nM | – | – |
| COc1cc(Cl)cc(-c2cc(F)c(NC(=O)c3ccccc3C(=O)O)c(F)c2)c1 [Example 55, 2-(3′-Chloro-3,5-difluoro-5′-methoxybiphenyl-4-ylcarbamoyl)benzoic acid] | 44.5% | 5.66% | – | – | – |
| Cc1n[nH]c2ccc(-c3cc(F)c(NC(=O)c4ccccc4C(=O)O)c(F)c3)cc12 [Example 64, 2-[2,6-difluoro-4-(3-methyl-1H-indazol-5-yl)phenylcarbamoyl]benzoic acid] | 23.4% | 15.3% | – | – | – |
| COc1ccc(Cl)c(-c2cc(F)c(NC(=O)c3ccccc3C(=O)O)c(Cl)c2)c1 [Example 57, 2-(2′,3-Dichloro-5-fluoro-5′-methoxybiphenyl-4-ylcarbamoyl)benzoic acid] | 68.1% | – | – | – | – |
| O=C(O)c1ccccc1C(=O)Nc1c(F)cc(OCc2ccccc2)cc1F [Example 40, 2-[4-(Benzyloxy)-2,6-difluorophenylcarbamoyl]benzoic acid] | – | 8.79% | – | – | – |
| CCc1cccc(-c2cc(F)c(NC(=O)c3ccccc3C(=O)O)c(Cl)c2)c1 [Example 65, 2-(3-chloro-3′-ethyl-5-fluorobiphenyl-4-ylcarbamoyl)benzoic acid] | 71.2% | 11% | 146 nM | – | – |
| C/C(O)=C(\C#N)C(=O)Nc1ccc(C(F)(F)F)cc1 [Teriflunomide, reference compound] | – | 0% | – | – | 77.2% |
| O=C(O)c1ccccc1C(=O)Nc1c(F)cc(-c2ccc3c(c2)CCO3)cc1Cl [Example 53, 2-[2-Chloro-4-(2,3-dihydrobenzofuran-5-yl)-6-fluorophenylcarbamoyl]benzoic acid] | – | 8.28% | – | – | – |
| COc1ccc(-c2cc(F)c(NC(=O)c3ccccc3C(=O)O)c(F)c2)cc1OC [Example 49, 2-(3,5-Difluoro-3′,4′-dimethoxybiphenyl-4-ylcarbamoyl)benzoic acid] | – | 3.95% | – | – | – |
